Test results as given in ChEMBL document CHEMBL4334438, “Discovery of novel glycogen synthase kinase-3α inhibitors: Structure-based virtual screening, preliminary SAR and biological evaluation for treatment of acute myeloid leukemia” (Eur J Med Chem, 2019).

Tests used:
[1] = test system: Proto-oncogene tyrosine-protein kinase Src (Homo sapiens), P12931 [T341M]; experiment: Inhibition of recombinant full-length human Src T341M mutant at 1 uM assessed as residual activity at 1 uM using GGEEEEYFELVKKKK as substrate measured after 40 mins in presence of [gamma33P]ATP by scintillation counting method relative to control
[2] = test system: Casein kinase I isoform gamma-3 (Homo sapiens), Q9Y6M4 [UNDEFINED MUTATION]; experiment: Inhibition of recombinant human CK1gamma3 K91E/R174G/E302D mutant (1 to 330 residues) assessed as residual activity at 1 uM using KRRRALS(p)VASLPGL as substrate incubated for 40 mins in presence of [gamma-33ATP] by scintillation counting based radiometry assay relative to control
Chain of Casein kinase I isoform gamma-3 (Homo sapiens), Q9Y6M4 [UNDEFINED MUTATION] (Q9Y6M4 whole entry, looked up, stated change not applied, the tested form may be a part, canonical isoform): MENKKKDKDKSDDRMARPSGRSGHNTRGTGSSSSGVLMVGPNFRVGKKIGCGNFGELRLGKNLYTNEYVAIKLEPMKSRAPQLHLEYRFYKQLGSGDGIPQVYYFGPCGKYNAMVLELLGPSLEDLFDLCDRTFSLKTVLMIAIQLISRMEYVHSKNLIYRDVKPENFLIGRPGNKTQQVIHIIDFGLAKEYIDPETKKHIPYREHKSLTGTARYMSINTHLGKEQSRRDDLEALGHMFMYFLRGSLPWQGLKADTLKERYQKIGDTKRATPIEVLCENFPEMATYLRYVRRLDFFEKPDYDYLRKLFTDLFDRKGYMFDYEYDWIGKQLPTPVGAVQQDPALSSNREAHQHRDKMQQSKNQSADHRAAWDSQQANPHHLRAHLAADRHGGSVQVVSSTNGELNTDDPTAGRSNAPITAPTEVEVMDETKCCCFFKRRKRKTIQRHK

[3] = test system: Hepatocyte growth factor receptor (Homo sapiens), P08581 [D1228H]; experiment: Inhibition of recombinant human MET A1209G/V1290L/D1246H mutant (974 to end residues) assessed as residual activity at 1 uM using KKKGQEEEYVFIE as substrate incubated for 40 mins in presence of [gamma-33ATP by scintillation counting based radiometry assay relative to control
Homo sapiens = species on record: Homo sapiens; experiment: Inhibition of recombinant full length human PRAK R291E mutant assessed as residual activity at 1 uM using KKLRRTLSVA as substrate measured after 40 mins in presence of [gamma33P]ATP by scintillation counting method relative to control
[4] = molecular target: Serine/threonine-protein kinase Chk1 (Homo sapiens) (UniProt O14757); experiment: Inhibition of recombinant full length human CHK1 assessed as residual activity at 1 uM using KKKVSRSGLYRSP as substrate incubated for 40 mins in presence of [gamma-33ATP] by scintillation counting based radiometry assay relative to control
Chain of Serine/threonine-protein kinase Chk1 (Homo sapiens) (O14757 whole entry, the tested form may be a part): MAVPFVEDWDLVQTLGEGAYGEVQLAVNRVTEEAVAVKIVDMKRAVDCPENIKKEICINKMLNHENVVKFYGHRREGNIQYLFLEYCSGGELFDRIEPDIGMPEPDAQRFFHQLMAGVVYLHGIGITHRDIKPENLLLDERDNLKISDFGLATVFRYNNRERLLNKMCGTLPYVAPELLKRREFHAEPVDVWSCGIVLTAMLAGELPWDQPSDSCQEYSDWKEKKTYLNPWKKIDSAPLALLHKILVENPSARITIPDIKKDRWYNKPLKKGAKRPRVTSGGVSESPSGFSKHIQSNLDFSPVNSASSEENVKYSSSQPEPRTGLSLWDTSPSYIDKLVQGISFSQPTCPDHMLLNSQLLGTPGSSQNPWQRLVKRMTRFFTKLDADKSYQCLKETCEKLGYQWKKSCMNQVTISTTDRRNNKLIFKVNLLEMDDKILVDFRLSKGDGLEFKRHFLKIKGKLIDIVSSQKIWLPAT

GSK-3beta (H350L mutant) = GSK-3beta (H350L mutant) (Homo sapiens, UniProt P49841, H350L); experiment: Inhibition of human GSK-3beta H350L mutant (2 to end residues) at 10 uM using phospho GS2 peptide as substrate after 40 mins by [gamma-33ATP] radiometric assay relative to control; conditions: human GSK-3beta H350L mutant enzyme (residues 2 to end), probe phospho GS2 peptide
Chain of GSK-3beta (H350L mutant) (P49841 whole entry, looked up, stated change not applied, the tested form may be a part, canonical isoform): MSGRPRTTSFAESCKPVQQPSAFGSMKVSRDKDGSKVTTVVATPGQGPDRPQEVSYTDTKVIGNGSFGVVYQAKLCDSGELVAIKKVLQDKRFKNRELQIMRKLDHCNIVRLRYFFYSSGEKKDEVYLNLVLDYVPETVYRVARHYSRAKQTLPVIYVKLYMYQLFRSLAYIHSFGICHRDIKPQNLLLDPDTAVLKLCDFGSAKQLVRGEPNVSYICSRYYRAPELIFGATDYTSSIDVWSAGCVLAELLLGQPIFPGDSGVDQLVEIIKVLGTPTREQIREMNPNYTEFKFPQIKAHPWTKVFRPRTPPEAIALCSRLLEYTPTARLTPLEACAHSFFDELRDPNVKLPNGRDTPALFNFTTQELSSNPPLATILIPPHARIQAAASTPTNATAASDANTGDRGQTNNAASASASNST

[5] = molecular target: Casein kinase I isoform delta (Homo sapiens) (UniProt P48730); experiment: Inhibition of recombinant human CK1delta (1 to 294 residues) assessed as residual activity at 1 uM using KRRRALS(p)VASLPGL as substrate incubated for 40 mins in presence of [gamma-33ATP] by scintillation counting based radiometry assay relative to control
Chain of Casein kinase I isoform delta (Homo sapiens) (P48730 whole entry, looked up, the tested form may be a part, canonical isoform): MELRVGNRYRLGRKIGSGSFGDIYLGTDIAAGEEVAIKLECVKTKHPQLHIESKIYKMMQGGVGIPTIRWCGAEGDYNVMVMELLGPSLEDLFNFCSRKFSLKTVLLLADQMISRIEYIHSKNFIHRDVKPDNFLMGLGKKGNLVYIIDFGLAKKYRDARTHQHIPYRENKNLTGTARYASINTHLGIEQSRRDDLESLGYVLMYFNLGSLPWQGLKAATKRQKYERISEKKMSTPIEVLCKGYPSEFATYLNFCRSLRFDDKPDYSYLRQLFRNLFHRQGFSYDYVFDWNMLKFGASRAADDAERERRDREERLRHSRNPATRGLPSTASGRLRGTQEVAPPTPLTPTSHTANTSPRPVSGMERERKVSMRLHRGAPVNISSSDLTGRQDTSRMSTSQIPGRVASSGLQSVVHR

[6] = molecular target: Serine/threonine-protein kinase B-raf (Homo sapiens) (UniProt P15056); experiment: Inhibition of recombinant full length human B-Raf (416 to end residues) assessed as residual activity at 1 uM using myelin basic protein substrate incubated for 40 mins in presence of [gamma-33ATP] by scintillation counting based radiometry assay relative to control
Chain of Serine/threonine-protein kinase B-raf (Homo sapiens) (P15056 whole entry, the tested form may be a part): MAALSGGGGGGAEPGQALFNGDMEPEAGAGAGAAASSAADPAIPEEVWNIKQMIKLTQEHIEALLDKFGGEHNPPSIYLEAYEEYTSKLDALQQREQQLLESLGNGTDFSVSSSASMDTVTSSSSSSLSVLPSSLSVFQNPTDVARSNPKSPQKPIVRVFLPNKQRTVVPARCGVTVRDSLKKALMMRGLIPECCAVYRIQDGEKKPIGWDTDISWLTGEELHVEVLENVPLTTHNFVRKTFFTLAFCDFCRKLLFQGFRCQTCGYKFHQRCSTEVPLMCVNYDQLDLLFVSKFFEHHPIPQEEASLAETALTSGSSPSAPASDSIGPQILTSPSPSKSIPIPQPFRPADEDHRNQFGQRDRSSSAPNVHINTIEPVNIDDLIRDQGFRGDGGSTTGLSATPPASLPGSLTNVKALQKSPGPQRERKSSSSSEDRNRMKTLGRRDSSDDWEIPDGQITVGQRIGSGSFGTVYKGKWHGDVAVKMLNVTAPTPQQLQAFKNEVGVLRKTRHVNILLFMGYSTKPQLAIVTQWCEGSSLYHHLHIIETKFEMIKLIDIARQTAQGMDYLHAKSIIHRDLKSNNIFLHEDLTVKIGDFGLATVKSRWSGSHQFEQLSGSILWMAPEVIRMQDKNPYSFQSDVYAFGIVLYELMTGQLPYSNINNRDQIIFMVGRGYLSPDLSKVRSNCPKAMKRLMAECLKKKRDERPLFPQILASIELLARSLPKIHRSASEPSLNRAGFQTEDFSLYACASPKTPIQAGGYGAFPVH

[7] = test system: Discoidin domain-containing receptor 2 (Homo sapiens), Q16832 [UNDEFINED MUTATION]; experiment: Inhibition of recombinant human DDR2 S642A mutant (467 to end residues) assessed as residual activity at 1 uM using KKSRGDYMTMQIG as substrate at 40 mins in presence of [gamma-33ATP] by scintillation counting based radiometry assay relative to control
[8] = test system: Tyrosine-protein kinase Blk (Homo sapiens), P51451 [UNDEFINED MUTATION]; experiment: Inhibition of recombinant full length human BLK M287V mutant assessed as residual activity at 1 uM using poly(Glu, Tyr) 4:1 as substrate incubated for 40 mins in presence of [gamma-33ATP] by scintillation counting based radiometry assay relative to control
[9] = molecular target: Tyrosine-protein kinase Lyn (Homo sapiens) (UniProt P07948); experiment: Inhibition of recombinant human Lyn assessed as residual activity at 1 uM using poly(Glu, Tyr) 4:1 as substrate after 40 mins in presence of [gamma-33ATP] by scintillation counting based radiometry assay relative to control
Chain of Tyrosine-protein kinase Lyn (Homo sapiens) (P07948 2-512 limits assumed): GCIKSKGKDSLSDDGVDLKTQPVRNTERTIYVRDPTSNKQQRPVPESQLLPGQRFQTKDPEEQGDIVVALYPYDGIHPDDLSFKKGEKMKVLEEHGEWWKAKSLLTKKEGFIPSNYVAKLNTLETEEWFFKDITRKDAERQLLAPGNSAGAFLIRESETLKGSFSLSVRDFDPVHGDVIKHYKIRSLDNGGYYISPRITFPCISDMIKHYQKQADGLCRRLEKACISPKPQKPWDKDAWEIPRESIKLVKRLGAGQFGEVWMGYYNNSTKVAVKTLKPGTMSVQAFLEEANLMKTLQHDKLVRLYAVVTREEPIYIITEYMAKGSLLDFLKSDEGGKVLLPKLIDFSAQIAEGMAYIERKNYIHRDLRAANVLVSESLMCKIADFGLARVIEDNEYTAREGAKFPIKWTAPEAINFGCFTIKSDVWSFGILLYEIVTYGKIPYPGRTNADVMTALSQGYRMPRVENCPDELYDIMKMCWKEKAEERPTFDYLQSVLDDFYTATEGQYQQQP

[10] = test system: Epidermal growth factor receptor (Homo sapiens), P00533 [L858R]; experiment: Inhibition of recombinant human EGFR L858R mutant (696 to end residues) assessed as residual activity at 1 uM using poly(Glu, Tyr) 4:1 as substrate at 40 mins in presence of [gamma-33ATP] by scintillation counting based radiometry assay relative to control
[11] = molecular target: Cyclin-dependent kinase-like 2 (Homo sapiens) (UniProt Q92772); experiment: Inhibition of recombinant full length human CDKL2 assessed as residual activity at 1 uM in presence of [gamma-33ATP] by scintillation counting based radiometry assay relative to control
[12] = molecular target: Death-associated protein kinase 2 (Homo sapiens) (UniProt Q9UIK4); experiment: Inhibition of recombinant full length human DAPK2 assessed as residual activity at 1 uM Calmodulin as substrate incubated 40 mins in presence of [gamma-33ATP] by scintillation counting based radiometry assay relative to control
Chain of Death-associated protein kinase 2 (Homo sapiens) (Q9UIK4 whole entry, looked up, canonical isoform): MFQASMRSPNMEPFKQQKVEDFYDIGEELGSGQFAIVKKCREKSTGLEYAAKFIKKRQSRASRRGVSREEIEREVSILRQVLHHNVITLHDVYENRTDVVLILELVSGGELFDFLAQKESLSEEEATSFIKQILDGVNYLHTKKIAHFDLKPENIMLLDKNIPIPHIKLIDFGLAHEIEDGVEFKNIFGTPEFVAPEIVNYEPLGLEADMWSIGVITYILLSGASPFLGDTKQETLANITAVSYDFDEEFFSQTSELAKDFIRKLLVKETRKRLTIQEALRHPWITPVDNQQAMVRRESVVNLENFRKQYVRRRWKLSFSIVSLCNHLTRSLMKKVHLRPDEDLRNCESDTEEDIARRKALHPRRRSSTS

[13] = molecular target: Casein kinase I isoform gamma-2 (Homo sapiens) (UniProt P78368); experiment: Inhibition of recombinant human CK1gamma2 (18 to end residues) assessed as residual activity at 1 uM using KRRRALS(p)VASLPGL as substrate incubated for 40 mins in presence of [gamma-33ATP] by scintillation counting based radiometry assay relative to control
[14] = test system: Tyrosine-protein kinase ABL1 (Homo sapiens), P00519 [T315I]; experiment: Inhibition of human ABL1 T315I mutant (27 to end residues) assessed as residual activity at 1 uM using EAIYAAPFAKKK as substrate incubated for 40 mins in presence of [gamma-33ATP] by scintillation counting based radiometry assay relative to control
[15] = molecular target: Serine/threonine-protein kinase DCLK2 (Homo sapiens) (UniProt Q8N568); experiment: Inhibition of recombinant human DCAMKL2 (376 to end residues) assessed as residual activity at 1 uM using KKLNRTLSFAEPG as substrate at 40 mins in presence of [gamma-33ATP] by scintillation counting based radiometry assay relative to control
[16] = molecular target: Homeodomain-interacting protein kinase 4 (Homo sapiens) (UniProt Q8NE63); experiment: Inhibition of human HIPK4 assessed as residual activity at 1 uM using RRRFRPASPLRGPPK as substrate after 40 mins by [gamma-33ATP] radiometric assay relative to control
[17] = test system: Serine/threonine-protein kinase Chk2 (Homo sapiens), O96017 [R145W]; experiment: Inhibition of recombinant human CHK2 R145W mutant (5 to end residues) assessed as residual activity at 1 uM using KKKVSRSGLYRSPSMPENLNRPR as substrate incubated for 40 mins in presence of [gamma-33ATP] by scintillation counting based radiometry assay relative to control
[18] = molecular target: Receptor tyrosine-protein kinase erbB-4 (Homo sapiens) (UniProt Q15303); experiment: Inhibition of recombinant human ERBB4 (706 to 991 residues) assessed as residual activity at 1 uM using poly(Glu, Tyr) 4:1 as substrate at 40 mins in presence of [gamma-33ATP] by scintillation counting based radiometry assay relative to control
Chain of Receptor tyrosine-protein kinase erbB-4 (Homo sapiens) (Q15303 whole entry, the tested form may be a part): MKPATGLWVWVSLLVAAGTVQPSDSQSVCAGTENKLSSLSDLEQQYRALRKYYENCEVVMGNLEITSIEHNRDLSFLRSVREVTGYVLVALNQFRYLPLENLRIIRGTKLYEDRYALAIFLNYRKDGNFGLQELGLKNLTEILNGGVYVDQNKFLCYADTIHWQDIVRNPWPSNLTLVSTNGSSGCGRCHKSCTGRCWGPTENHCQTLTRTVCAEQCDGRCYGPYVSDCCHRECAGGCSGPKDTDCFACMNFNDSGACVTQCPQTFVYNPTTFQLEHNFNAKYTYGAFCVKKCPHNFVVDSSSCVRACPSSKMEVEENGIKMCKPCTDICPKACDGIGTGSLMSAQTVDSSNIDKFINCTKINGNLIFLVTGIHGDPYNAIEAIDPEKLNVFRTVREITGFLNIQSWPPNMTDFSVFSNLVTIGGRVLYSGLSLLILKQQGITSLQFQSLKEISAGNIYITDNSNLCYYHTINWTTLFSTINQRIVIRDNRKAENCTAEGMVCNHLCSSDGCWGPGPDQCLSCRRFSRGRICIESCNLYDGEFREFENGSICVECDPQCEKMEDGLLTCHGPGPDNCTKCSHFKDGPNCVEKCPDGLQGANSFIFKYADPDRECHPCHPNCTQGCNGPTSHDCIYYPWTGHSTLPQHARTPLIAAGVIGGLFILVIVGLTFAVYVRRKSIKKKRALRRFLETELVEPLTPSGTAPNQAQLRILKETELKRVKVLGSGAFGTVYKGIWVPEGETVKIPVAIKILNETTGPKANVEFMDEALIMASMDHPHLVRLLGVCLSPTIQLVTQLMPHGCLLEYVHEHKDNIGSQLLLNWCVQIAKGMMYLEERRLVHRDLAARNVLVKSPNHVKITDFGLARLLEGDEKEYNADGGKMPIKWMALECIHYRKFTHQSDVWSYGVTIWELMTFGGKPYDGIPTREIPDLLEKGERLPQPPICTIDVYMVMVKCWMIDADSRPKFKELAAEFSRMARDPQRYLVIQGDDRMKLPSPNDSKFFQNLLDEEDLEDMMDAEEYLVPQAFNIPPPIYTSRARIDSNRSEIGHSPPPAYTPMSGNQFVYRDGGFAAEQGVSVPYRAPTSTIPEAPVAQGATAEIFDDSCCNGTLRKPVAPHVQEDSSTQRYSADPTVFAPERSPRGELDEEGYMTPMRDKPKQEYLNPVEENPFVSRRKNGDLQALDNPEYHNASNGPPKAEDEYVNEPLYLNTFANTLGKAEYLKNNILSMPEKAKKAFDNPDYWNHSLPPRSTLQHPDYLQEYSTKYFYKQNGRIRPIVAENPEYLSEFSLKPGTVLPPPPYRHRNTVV

Row | Structure (SMILES) | Activity [1] [%] | Activity [2] [%] | Activity [3] [%] | Activity (Homo sapiens) [%] | Activity [4] [%] | inhibition at 40 min, 10 µM (GSK-3beta (H350L mutant)) [%] | Activity [5] [%] | Activity [6] [%] | Activity [7] [%] | Activity [8] [%] | Activity [9] [%] | Activity [10] [%] | Activity [11] [%] | Activity [12] [%] | Activity [13] [%] | Activity [14] [%] | Activity [15] [%] | Activity [16] [%] | Activity [17] [%] | Activity [18] [%]
1 | N=C1NC(=O)/C(=C\c2ccc(-c3cccc([N+](=O)[O-])c3)o2)S1 | 97 | 97 | 92 | 71 | 102 | 95 | 101 | 97 | 108 | 107 | 83 | 76 | 74 | 83 | 98 | 75 | 102 | 92 | 99 | 99
2 | C=CCOC(=O)c1cc(-c2ccc(/C=C3/NC(=S)NC3=O)o2)ccc1Cl | 92 | 121 | 110 | 82 | 103 | 92 | 94 | 90 | 105 | 93 | 92 | 106 | 68 | 86 | 94 | 103 | 104 | 97 | 91 | 90
